According to patent publication US11345710B2, “Imidazo[1,2-b]pyrimido[4,5-d]pyridazin-5(6H)-ones and the use thereof” (IMPACT THERAPEUTICS (SHANGHAI), INC, priority 2017, dated 2022):
Like-named read-outs stand apart in the source and are kept apart here.

Experiments:
[1] = system: NCI-H1299 cells; assay: MTT based cell viability assay on NCI-H1299 cells; conditions: Homo sapiens, read-out: IC50, growth inhibition on NCI-H1299 cells
Protocol: Determination of the Cell Growth Inhibiting Activity of 6-(2,6-dichlorophenyl)-2-((4-(4-methylpiperazin-1-yl)phenyl)amino)imidazo[1,2-b]pyrimido[4,5-d]pyridazin-5(6H)-one and Analogs on NCI-H1299 Cells Using a MTT Based Cell Viability Assay
The thawed NCI-H1299 cells were cultured and passaged to the third generation, and the growth state was good and the confluence was about 90%, which began to be used in the experiment. The NCI-H1299 cells were digested with trypsin, centrifuged at 800 rpm for 5 min, the supernatant was discarded, resuspended with fresh culture medium, and counted. 1000 Cells are seeded to each well of a 96-well plate. The cells are incubated at 37° C. in a 5% CO2 cell culture incubator overnight. The tested sample (including the tested compound and the reference compound AZD1775) was diluted continuously to 8 concentrations (the last concentration was negative control of DMSO) with a 1:3 and 1:10 dilution in DMSO respectively: 10 μM, 3.3 μM, 1 μM, 0.33 μM, 0.1 μM, 0.033 μM, 0.01 μM, 0 μM (the final concentration of DMSO was 1%). 5 μL of each concentration was added to 120 μL of culture medium (25 times diluted), and the mixture was shaken well. The overnight cells were taken and the culture medium was removed, 195 μL of fresh culture medium was added to each well, and 5 μL of diluted culture medium containing the corresponding concentration of the tested sample was added respectively, and the culture plate was then placed in the 5% CO2 cell culture incubator at 37° C. for 3 d. After removing the original solution and adding 100 μL of fresh serum-free DMEM culture medium containing MTT (0.5 mg/mL) per well, the culture was continued. The original solution was removed after 4 hrs and 100 μl DMSO was added to each well. The 96-well cell culture plates were shaken away from light for 10 min and readed in a multifunctional reader at 552/630/690 nm to give absorption values (OD values). The data were analyzed using a graphic software (Graph Pad Prism 5.0) and the inhibitory activity of the compound on cell proliferation was plotted in terms of cell survival and compound concentration. The IC50 values were fitted by the S-shaped dose-response curve equation as follows: Y=100/(1+10^(Log C−Log IC50)), where C was the concentration of testing compounds.

[2] = system: LoVo cells; assay: MTT based cell viability assay on LoVo cells; conditions: Homo sapiens, 72 h, read-out: IC50, growth inhibition on LoVo cells
Protocol: Determination of the Cell Growth Inhibiting Activity of 6-(2,6-dichlorophenyl)-2-((4-(4-methylpiperazin-1-yl)phenyl)amino)imidazo[1,2-b]pyrimido[4,5-d]pyridazin-5(6H)-one and Analogs Thereof on LoVo Cells Using a MTT Based Cell Viability Assay
The thawed LoVo cells were cultured and passaged to the third generation, and the growth state was good and the confluence was about 90%, which began to be used in the experiment. The LoVo cells were digested with trypsin, centrifuged at 800 rpm for 5 min, the supernatant was discarded, resuspended with fresh culture medium, and counted. 6000 Cells are seeded to each well of a 96-well cell culture plate. The cells were incubated at 37° C. in a 5% CO2 cell culture incubator overnight. The tested sample (including the tested compound and the reference compound AZD1775) was diluted continuously to 8 concentrations (the last concentration was negative control of DMSO) with a 1:3 and 1:10 dilution in DMSO respectively: 10 μM, 3.3 μM, 1 μM, 0.33 μM, 0.1 μM, 0.033 μM, 0.01 μM, 0 μM (the final concentration of DMSO was 1%). 5 μL of each concentration was added to 120 μL of culture medium (25 times diluted), and the mixture was shaken well. The overnight cells were taken and the culture medium was removed, 195 μL of fresh culture medium was added to each well, and 5 μL of diluted culture medium containing the corresponding concentration of the tested sample was added respectively, and the culture plate was then placed in the 5% CO2 cell culture incubator at 37° C. for 3 d. After removing the original solution and adding 100 μL of fresh serum-free DMEM culture medium containing MTT (0.5 mg/mL) per well, the culture was continued. The original solution was removed after 4 hrs and 100 μl DMSO was added to each well. The 96-well cell culture plates were shaken away from light for 10 min and readed in a multifunctional reader at 552/630/690 nm to give absorption values (OD values). The data were analyzed using a graphic software (Graph Pad Prism 5.0) and the inhibitory activity of the compound on cell proliferation was plotted in terms of cell survival and compound concentration. The IC50 values were fitted by the S-shaped dose-response curve equation as follows: Y=100/(1+10^(Log C−Log IC50)), where C was the concentration of testing compounds.

[3] = target: Wee1 kinase (h) (Homo sapiens, UniProt P30291); assay: Wee1 kinase (h) detection method, [γ-33P]-ATP filter assay; type: biochemical; conditions: 10 μM ATP, 40 minutes at room temperature
Sequence of Wee1 kinase (h) (P30291 whole entry): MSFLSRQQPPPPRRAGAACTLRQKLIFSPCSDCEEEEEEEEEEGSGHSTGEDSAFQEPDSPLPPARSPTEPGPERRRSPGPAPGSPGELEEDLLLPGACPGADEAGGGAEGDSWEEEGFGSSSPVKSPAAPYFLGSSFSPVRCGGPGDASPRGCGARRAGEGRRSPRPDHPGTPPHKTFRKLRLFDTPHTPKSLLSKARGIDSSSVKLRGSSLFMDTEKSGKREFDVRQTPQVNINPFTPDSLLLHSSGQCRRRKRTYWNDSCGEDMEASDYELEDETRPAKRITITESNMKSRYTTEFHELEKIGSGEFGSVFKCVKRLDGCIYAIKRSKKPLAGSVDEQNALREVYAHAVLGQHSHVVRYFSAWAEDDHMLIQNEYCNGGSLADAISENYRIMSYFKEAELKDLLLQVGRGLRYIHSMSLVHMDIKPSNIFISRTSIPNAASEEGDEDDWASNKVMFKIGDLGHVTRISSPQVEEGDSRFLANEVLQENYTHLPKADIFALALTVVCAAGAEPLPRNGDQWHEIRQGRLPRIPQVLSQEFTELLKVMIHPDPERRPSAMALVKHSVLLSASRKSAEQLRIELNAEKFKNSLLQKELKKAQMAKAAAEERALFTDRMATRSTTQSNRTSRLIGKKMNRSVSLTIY
Protocol: Wee1 kinase (h) was incubated with 20 mM Tris/HCl pH 8.5, 0.2 mM EDTA, 500 μM […], 10 mM MgAcetate and 10 μM [γ-^33P]-ATP. Then the stock solution of all compounds under test with 50× concentration in 100% DMSO was added to make the final concentration of 1/0.1/0.01 μM, and then mixed the mixture well. The reaction was initiated by the addition of the Mg/ATP mix. After incubation for 40 minutes at room temperature, the reaction was stopped by the addition of phosphoric acid to a concentration of 0.5%. 10 μL of the reaction liquor was then spotted onto a P30 filtermat and washed four times in 0.425% phosphoric acid and once in methanol prior to drying and scintillation counting. Each compound sample was duplicated in duplicate. The negative control was lack of all the components of Wee1 enzyme, and the positive was addition of 30% phosphoric acid to terminate the reaction. The Wee1 inhibitor AZD1775 was detected at 10/0.01 μM at the same experiment condition.

[4] = 72 h, NCI-H1299 cells, 3 d, MTT

Cc1cccc(Cl)c1-n1c(=O)c2cnc(Nc3ccc(N4CCN(C)CC4)c(Cl)c3)nc2c2nccn21 [Example 53, 6-(2-chloro-6-methylphenyl)-2-((3-chloro-4-(4-methylpiperazin-1-yl)phenyl)amino)imidazo[1,2-b]pyrimido[4,5-d]pyridazin-5(6H)-one]
IC50 [1, 4]: 0.809 µM
IC50 ([2]; LoVo cells, 3 d, MTT): 0.642 µM
Inh. (%) of Wee1 kinase ([3]; C 0.01 μm): 12%
Inh. (%) of Wee1 kinase ([3]; C 0.1 μm): 69%
Inh. (%) of Wee1 kinase ([3]; C 1 μm): 94%

Cc1cnc2c3nc(Nc4ccc(N5CCN(C)CC5)c(Cl)c4)ncc3c(=O)n(-c3c(Cl)cccc3Cl)n12 [Example 56, 6-(2,6-dichlorophenyl)-2-((3-chloro-4-(4-methylpiperazin-1-yl)phenyl)amino)-8-methylimidazo[1,2-b]pyrimido[4,5-d]pyridazin-5(6H)-one]
IC50 [1, 4]: 0.54 µM
IC50 ([2]; LoVo cells, 3 d, MTT): 0.434 µM
Inh. (%) of Wee1 kinase ([3]; C 1 μm): 95%

Cc1cc(Nc2ncc3c(=O)n(-c4c(F)cccc4Cl)n4ccnc4c3n2)cc(F)c1N1CCC(N(C)C)CC1 [Example 25, 6-(2-chloro-6-fluorophenyl)-2-((3-fluoro-5-methyl-4-(4-(dimethylamino)piperidin-1-yl)phenyl)amino)imidazo[1,2-b]pyrimido[4,5-d]pyridazin-5(6H)-one]
IC50 [1, 4]: 0.249 µM
IC50 ([2]; LoVo cells, 3 d, MTT): 0.144 µM
Inh. (%) of Wee1 kinase ([3]; C 0.01 μm): 10%
Inh. (%) of Wee1 kinase ([3]; C 1 μm): 96%

Cc1cc(Nc2ncc3c(=O)n(-c4c(Cl)cccc4Cl)n4ccnc4c3n2)ccc1N1CCC(N(C)C)CC1 [Example 36, 6-(2,6-dichlorophenyl)-2-((3-methyl-4-(4-(dimethylamino)piperidin-1-yl)phenyl)amino)imidazo[1,2-b]pyrimido[4,5-d]pyridazin-5(6H)-one]
IC50 ([1]; NCI-H1299, 72 h): 0.135 µM
IC50 ([2]; LoVo): 0.206 µM
Inh. (%) of Wee1 kinase ([3]; C 0.01 μm): 22%
Inh. (%) of Wee1 kinase ([3]; C 1 μm): 98%

Cc1cn2c(n1)c1nc(Nc3ccc(N4CCN(C)CC4)c(Cl)c3)ncc1c(=O)n2-c1c(Cl)cccc1Cl [Example 57, 6-(2,6-dichlorophenyl)-2-((3-chloro-4-(4-methylpiperazin-1-yl)phenyl)amino)-9-methylimidazo[1,2-b]pyrimido[4,5-d]pyridazin-5(6H)-one]
IC50 [1, 4]: 0.173 µM
IC50 ([2]; LoVo cells, 3 d, MTT): 0.269 µM
Inh. (%) of Wee1 kinase ([3]; C 0.01 μm): 12%
Inh. (%) of Wee1 kinase ([3]; C 1 μm): 93%

Cc1cc(Nc2ncc3c(=O)n(-c4c(Cl)cccc4Br)n4ccnc4c3n2)cc(F)c1N1CCC(N(C)C)CC1 [Example 50, 6-(2-bromo-6-chlorophenyl)-2-((3-fluoro-5-methyl-4-(4-(dimethylamino)piperidin-1-yl)phenyl)amino)imidazo[1,2-b]pyrimido[4,5-d]pyridazin-5(6H)-one]
IC50 [1, 4]: 0.501 µM
IC50 ([2]; LoVo cells, 3 d, MTT): 0.324 µM
Inh. (%) of Wee1 kinase ([3]; C 1 μm): 94%

CN(C)C1CCN(c2ccc(Nc3ncc4c(=O)n(-c5c(Cl)cccc5Br)n5ccnc5c4n3)cc2Cl)CC1 [Example 48, 6-(2-bromo-6-chlorophenyl)-2-((3-chloro-4-(4-(dimethylamino)piperidin-1-yl)phenyl)amino)imidazo[1,2-b]pyrimido[4,5-d]pyridazin-5(6H)-one]
IC50 [1, 4]: 0.281 µM
IC50 ([2]; LoVo cells, 3 d, MTT): 0.227 µM
Inh. (%) of Wee1 kinase ([3]; C 0.01 μm): 23%
Inh. (%) of Wee1 kinase ([3]; C 1 μm): 93%

CN1CCN(c2ccc(Nc3ncc4c(=O)n(-c5c(F)cccc5Cl)n5ccnc5c4n3)cc2)CC1 [Example 7, 6-(2-chloro-6-fluorophenyl)-2-((4-(4-methylpiperazin-1-yl)phenyl)amino)imidazo[1,2-b]pyrimido[4,5-d]pyridazin-5(6H)-one]
IC50 [1, 4]: 0.781 µM
IC50 ([2]; LoVo cells, 3 d, MTT): 0.831 µM
Inh. (%) of Wee1 kinase ([3]; C 1 μm): 92%

Cc1cc(Nc2ncc3c(=O)n(-c4c(F)cccc4F)n4ccnc4c3n2)cc(F)c1N1CCN(C)CC1 [Example 19, 6-(2,6-difluorophenyl)-2-((3-fluoro-5-methyl-4-(4-methylpiperazin-1-yl)phenyl)amino)imidazo[1,2-b]pyrimido[4,5-d]pyridazin-5(6H)-one]
IC50 [1, 4]: 0.743 µM
IC50 ([2]; LoVo cells, 3 d, MTT): 0.408 µM
Inh. (%) of Wee1 kinase ([3]; C 1 μm): 92%

Cc1cc(Nc2ncc3c(=O)n(-c4c(F)cccc4F)n4ccnc4c3n2)cc(C)c1N1CCN(C)CC1 [Example 13, 6-(2,6-difluorophenyl)-2-((3,5-dimethyl-4-(4-methylpiperazin-1-yl)phenyl)amino)imidazo[1,2-b]pyrimido[4,5-d]pyridazin-5(6H)-one]
IC50 [1, 4]: 0.738 µM
IC50 ([2]; LoVo cells, 3 d, MTT): 0.488 µM
Inh. (%) of Wee1 kinase ([3]; C 1 μm): 85%

Cc1cc(Nc2ncc3c(=O)n(-c4c(Cl)cccc4Cl)n4ccnc4c3n2)cc(F)c1N1CCC(N(C)C)CC1 [Example 37, 6-(2,6-dichlorophenyl)-2-((3-fluoro-5-methyl-4-(4-(dimethylamino)piperidin-1-yl)phenyl)amino)imidazo[1,2-b]pyrimido[4,5-d]pyridazin-5(6H)-one]
IC50 ([1]; NCI-H1299, 72 h): 0.187 µM
IC50 ([2]; LoVo): 0.291 µM
Inh. (%) of Wee1 kinase ([3]; C 0.01 μm): 13%
Inh. (%) of Wee1 kinase ([3]; C 1 μm): 96%

Cc1cc(Nc2ncc3c(=O)n(-c4c(F)cccc4Cl)n4ccnc4c3n2)ccc1N1CCN(C)CC1 [Example 9, 6-(2-chloro-6-fluorophenyl)-2-((3-methyl-4-(4-methylpiperazin-1-yl)phenyl)amino)imidazo[1,2-b]pyrimido[4,5-d]pyridazin-5(6H)-one]
IC50 [1, 4]: 0.284 µM
IC50 ([2]; LoVo cells, 3 d, MTT): 0.213 µM
Inh. (%) of Wee1 kinase ([3]; C 0.01 μm): 14%
Inh. (%) of Wee1 kinase ([3]; C 1 μm): 97%

Cc1cc(Nc2ncc3c(=O)n(-c4c(Cl)cccc4Br)n4ccnc4c3n2)ccc1N1CCN(C)CC1 [Example 46, 6-(2-bromo-6-chlorophenyl)-2-((3-methyl-4-(4-methylpiperazin-1-yl)phenyl)amino)imidazo[1,2-b]pyrimido[4,5-d]pyridazin-5(6H)-one]
IC50 [1, 4]: 0.271 µM
IC50 ([2]; LoVo cells, 3 d, MTT): 0.242 µM
Inh. (%) of Wee1 kinase ([3]; C 0.01 μm): 17%
Inh. (%) of Wee1 kinase ([3]; C 1 μm): 92%

Cc1cc(Nc2ncc3c(=O)n(-c4c(Cl)cccc4Cl)n4ccnc4c3n2)cc2c1CCN(C)C2 [Example 44, 6-(2,6-dichlorophenyl)-2-((2,5-dimethyl-1,2,3,4-tetrahydroisoquinolin-7-yl)amino)imidazo[1,2-b]pyrimido[4,5-d]pyridazin-5(6H)-one]
IC50 ([1]; NCI-H1299, 72 h): 0.164 µM
IC50 ([2]; LoVo): 0.371 µM
Inh. (%) of Wee1 kinase ([3]; C 0.01 μm): 4%
